From patent publication US20260198495A1, “BINARY INSECTICIDE COMPOSITION AND USE THEREOF” (SHENYANG SINOCHEM AGROCHEMICALS R & D CO., LTD., priority 2022, published 2026)

Assays:
Type in all cases: in vivo
[1] = tested on: Pyrrhalta aenescens; test: Joint toxicity of I-72 + fenobucarb, insect-dipping, Example 24, Table 24; conditions: A = compound I-72, B = fenobucarb, insect-dipping, 24 hours, read-out: LC50
Experimental: Test target: Pyrrhalta aenescens, a strain reared indoors.
Experimental method: the insect-dipping method was adopted. Pyrrhalta aenescens of the same size were selected, put into an insect-dipping cage, and evenly […] the pesticide solution in the order from low dosage to high dosage according to the experimental design, with dipping for 10 s for each treatment. They were placed in a 9-cm-diameter Petri dish with filter paper. After natural air-drying in the shade, feed was added, with 3 replicates for each treatment. In addition, a blank control was set up.
The treated test materials were placed in an observation room. The total number of test insects and the number of dead insects were investigated 24 hours later. The temperature, humidity and illumination of the observation room could be adjusted as needed. The test conditions, the preparation of the pesticide solution and the evaluation method were the same as those in Example 1.

[2] = tested on: Thrips flavus Schrank nymphs; test: Joint toxicity of I-72 + spirotetramat, Example 26, Table 26; conditions: A = compound I-72, B = spirotetramat, eggplant seedling spraying, 48 hours, read-out: LC50
Experimental: Test target: Thrips flavus Schrank nymphs.
(§1) Preparation of the pesticide solution: according to different test requirements, the test samples were accurately weighed respectively with an electronic analytical balance. The technical pesticides were dissolved in acetone, and then diluted with 0.1% Tween 80 water into a series of pesticide solutions with a certain concentration gradient according to the experimental design dosage.
Experimental method: first, eggplant seedlings with Thrips flavus Schrank were selected, and the base number was counted. Then, uniform spraying was performed with the pesticide solution in the order from low to high doses according to the experimental design, with 2 mL for each seedling and 3 replicates for each treatment. In addition, a blank control was set up.
(§2) The treated test materials were placed in an observation room, and the temperature, humidity and illumination of the observation room could be adjusted as needed. The number of dead and live insects was investigated 48 hours later. […] Then, the co-toxicity coefficient of each ratio was calculated using the Sun Y-P method to evaluate the mixing effect (the same as in Example 1).

[3] = tested on: adult Tetranychus cinnabarinus (Boisduval); test: Joint toxicity of I-72 + fenpropathrin, Example 39, Table 39; conditions: A = compound I-72, B = fenpropathrin, potted-seedling spraying, 72 hours, read-out: LC50
Experimental: Test target: adult Tetranychus cinnabarinus (Boisduval), a sensitive strain reared indoors.
as §1
Experimental method: the activity of the mixture against the adult Tetranychus cinnabarinus (Boisduval) was determined by adopting the potted-seedling spraying method. First, the adult Tetranychus cinnabarinus of uniform size were transferred onto the leaves of kidney bean seedlings at the stage when the first pair of true leaves was fully expanded. After the adult mites had stabilized, the base number was counted. Then, the uniform spraying was performed with the pesticide solution in the order from low to high dose according to the experimental design, with 1.5 mL for each seedling and 3 replicates for each treatment. […]
as §2, with “needed.” for “needed. The number of dead and live insects was investigated 48 hours later.”, “effect,” for “effect (the same”, “1.” for “1).”

[4] = tested on: Aphis gossypii Glover nymphs; test: Joint toxicity of I-72 + nitenpyram, Example 67, Table 67; conditions: A = compound I-72, B = nitenpyram, cotton leaf spraying, 48 hours, read-out: LC50
Experimental: Test target: Aphis gossypii Glover nymphs, a sensitive strain reared indoors.
as §1
Experimental method: first, cotton leaves with uniform and consistent Aphis gossypii were selected, with about 30-40 insects on each leaf. Then, they were evenly sprayed with the pesticide solution in the order from low dosage to high dosage according to the experimental design, with 1.5 mL for each leaf and 3 replicates for each treatment. In addition, a blank control was set up.
as §2

## CN(C(=O)c1ccc2c(c1)OC(F)(F)O2)c1cccc(C(=O)Nc2c(Br)cc(C(F)(C(F)(F)F)C(F)(F)F)cc2OC(F)F)c1F [Compound I-72]
[1]
  LC50: 1.33 µg/mL
[2]
  LC50: 2.04 µg/mL
[3]
  LC50: 34.1 µg/mL
[4]
  LC50: 3 µg/mL
